This is an account of results in US20040033263A1, “Reduced formate poly(alkylene oxides) with secondary amines for reducing impurity formation” (priority 2002, published 2004).

The conditions of series [1]: cited from earlier work.
Series [2] in a line: Stability of reboxetine methanesulfonate in the presence of traditional poly(alkylene oxide) polymers. Type of series: physicochemical. From the text:
Substantial levels of various impurities are formed, which increase in concentration over time. The predominant impurity that is formed is the n-formyl species of reboxetine methanesulfonate, known as n-formyl reboxetine.
Poly(alkylene oxide) polymer consists of long chains of the polymer. Irradiation and oxidation cause these chains to be cleaved, leaving inorganic and organic formates at the ends of the chains. As more cleaving occurs, there are higher levels of formates present.

For the compound `C/C(=C/C(=O)O)C(=O)O` [citraconic acid], the Pka in series [1] was 2.48.

As to `F` [hydrofluoric acid], the Pka in series [1] was 3.14.

With `CCOc1ccccc1OC(c1ccccc1)C1CNCCO1.CS(=O)(=O)O` (centres unmarked) [reboxetine methanesulfonate], in series [2], the “stability in the presence of traditional poly(alkylene oxide) polymer subjected to irradiation processes or oxidation” value was “substantially less stable” and the “stability in the presence of traditional polyethylene oxides” value is “unstable”.

For the compound `O=S(O)(O)=S` [thiosurfuric acid], the Pka in series [1] is 2.00.
